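Here, GI50 denotes the concentration required for 50% inhibition of growth. TGI is the concentration that stops growth completely.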
Legend:
Assay in all cases: DTP human tumour cell line panel, 384-well format
HCC-2998 colon = system: HCC-2998 colon
SN12C renal = system: SN12C renal
NCI-H23 lung = system: NCI-H23 lung
MDA-MB-468 breast = system: MDA-MB-468 breast
MALME-3M melanoma = system: MALME-3M melanoma
HCT-15 colon = system: HCT-15 colon
SNB-75 CNS = system: SNB-75 CNS
UACC-62 melanoma = system: UACC-62 melanoma
HS 578T breast = system: HS 578T breast
M14 melanoma = system: M14 melanoma
MOLT-4 leukemia = system: MOLT-4 leukemia
SK-MEL-5 melanoma = system: SK-MEL-5 melanoma
OVCAR-3 ovarian = system: OVCAR-3 ovarian
NCI-H226 lung = system: NCI-H226 lung
SNB-19 CNS = system: SNB-19 CNS
KM12 colon = system: KM12 colon
MCF7 breast = system: MCF7 breast
EKVX NSCLC = system: EKVX NSCLC
SR leukemia = system: SR leukemia
ACHN renal = system: ACHN renal
U251 glioblastoma = system: U251 glioblastoma
SF-539 CNS = system: SF-539 CNS
MDA-MB-435 melanoma = system: MDA-MB-435 melanoma
COLO 205 colon = system: COLO 205 colon
BT-549 breast = system: BT-549 breast
HL-60(TB) leukemia = system: HL-60(TB) leukemia
NCI/ADR-RES ovarian = system: NCI/ADR-RES ovarian
DU-145 prostate = system: DU-145 prostate
NCI-H522 lung = system: NCI-H522 lung
CAKI-1 renal = system: CAKI-1 renal
MDA-MB-231 breast = system: MDA-MB-231 breast
HCT-116 colon = system: HCT-116 colon
UACC-257 melanoma = system: UACC-257 melanoma
NCI-H460 NSCLC = system: NCI-H460 NSCLC
SK-MEL-28 melanoma = system: SK-MEL-28 melanoma
IGROV1 ovarian = system: IGROV1 ovarian
SF-268 CNS = system: SF-268 CNS
RPMI-8226 leukemia = system: RPMI-8226 leukemia
HOP-62 NSCLC = system: HOP-62 NSCLC
A549 NSCLC = system: A549 NSCLC
SF-295 CNS = system: SF-295 CNS
OVCAR-4 ovarian = system: OVCAR-4 ovarian
TK-10 renal = system: TK-10 renal
NCI-H322M lung = system: NCI-H322M lung
A498 renal = system: A498 renal
SK-OV-3 ovarian = system: SK-OV-3 ovarian

O=C(NC1CCNCC1)c1[nH]ncc1NC(=O)c1c(Cl)cccc1Cl
GI50 (HCC-2998 colon): 151 nM
TGI (HCC-2998 colon): 360 nM
GI50 (SN12C renal): 181 nM
TGI (SN12C renal): 395 nM
GI50 (NCI-H23 lung): 180 nM
TGI (NCI-H23 lung): 345 nM
GI50 (MDA-MB-468 breast): 157 nM
TGI (MDA-MB-468 breast): 296 nM
GI50 (MALME-3M melanoma): 182 nM
TGI (MALME-3M melanoma): 348 nM
GI50 (HCT-15 colon): 3520 nM
TGI (HCT-15 colon): 43500 nM
GI50 (SNB-75 CNS): 194 nM
TGI (SNB-75 CNS): 356 nM
GI50 (UACC-62 melanoma): 169 nM
TGI (UACC-62 melanoma): 369 nM
GI50 (HS 578T breast): 209 nM
TGI (HS 578T breast): 477 nM
GI50 (M14 melanoma): 257 nM
TGI (M14 melanoma): 619 nM
GI50 (MOLT-4 leukemia): 200 nM
TGI (MOLT-4 leukemia): 344 nM
GI50 (SK-MEL-5 melanoma): 183 nM
TGI (SK-MEL-5 melanoma): 337 nM
GI50 (OVCAR-3 ovarian): 163 nM
TGI (OVCAR-3 ovarian): 347 nM
GI50 (NCI-H226 lung): 205 nM
TGI (NCI-H226 lung): 527 nM
GI50 (SNB-19 CNS): 326 nM
TGI (SNB-19 CNS): > 100000 nM
GI50 (KM12 colon): 176 nM
TGI (KM12 colon): > 100000 nM
GI50 (MCF7 breast): 59 nM
TGI (MCF7 breast): > 100000 nM
GI50 (EKVX NSCLC): 366 nM
TGI (EKVX NSCLC): 1830 nM
GI50 (SR leukemia): 18.5 nM
TGI (SR leukemia): 37.3 nM
GI50 (ACHN renal): 2360 nM
TGI (ACHN renal): 34900 nM
GI50 (U251 glioblastoma): 268 nM
TGI (U251 glioblastoma): 703 nM
GI50 (SF-539 CNS): 212 nM
TGI (SF-539 CNS): 454 nM
GI50 (MDA-MB-435 melanoma): 191 nM
TGI (MDA-MB-435 melanoma): 379 nM
GI50 (COLO 205 colon): 126 nM
TGI (COLO 205 colon): 391 nM
GI50 (BT-549 breast): 183 nM
TGI (BT-549 breast): 377 nM
GI50 (HL-60(TB) leukemia): 105 nM
TGI (HL-60(TB) leukemia): 224 nM
GI50 (NCI/ADR-RES ovarian): > 100000 nM
TGI (NCI/ADR-RES ovarian): > 100000 nM
GI50 (DU-145 prostate): 260 nM
TGI (DU-145 prostate): 692 nM
GI50 (NCI-H522 lung): 202 nM
TGI (NCI-H522 lung): 384 nM
GI50 (CAKI-1 renal): 371 nM
TGI (CAKI-1 renal): > 100000 nM
GI50 (MDA-MB-231 breast): 256 nM
TGI (MDA-MB-231 breast): > 100000 nM
GI50 (HCT-116 colon): 202 nM
TGI (HCT-116 colon): > 100000 nM
GI50 (UACC-257 melanoma): 246 nM
TGI (UACC-257 melanoma): 564 nM
GI50 (NCI-H460 NSCLC): 168 nM
TGI (NCI-H460 NSCLC): 379 nM
GI50 (SK-MEL-28 melanoma): 187 nM
TGI (SK-MEL-28 melanoma): 394 nM
GI50 (IGROV1 ovarian): 286 nM
TGI (IGROV1 ovarian): 809 nM
GI50 (SF-268 CNS): 186 nM
TGI (SF-268 CNS): 478 nM
GI50 (RPMI-8226 leukemia): 200 nM
TGI (RPMI-8226 leukemia): 344 nM
GI50 (HOP-62 NSCLC): 212 nM
TGI (HOP-62 NSCLC): 500 nM
GI50 (A549 NSCLC): 388 nM
TGI (A549 NSCLC): > 100000 nM
GI50 (SF-295 CNS): 352 nM
TGI (SF-295 CNS): > 100000 nM
GI50 (OVCAR-4 ovarian): 262 nM
TGI (OVCAR-4 ovarian): 560 nM
GI50 (TK-10 renal): 528 nM
TGI (TK-10 renal): 9380 nM
GI50 (NCI-H322M lung): 197 nM
TGI (NCI-H322M lung): 477 nM
GI50 (A498 renal): 304 nM
TGI (A498 renal): 879 nM
GI50 (SK-OV-3 ovarian): 362 nM
TGI (SK-OV-3 ovarian): > 100000 nM
